# Where two headings read alike, the source gives them in different places.
# Columns and labels:
# [1] = ThT binding to supramolecular complexes, plate reader fluorescence; assay type: physicochemical; details: all pH-values tested (5, 6.5, 7.4); 50 µM insulin or PTH(1-34) or 200 µM penetratin alone, 100 µM ThT; N = 3
# [2] = system: Caco-2 cell monolayers; assay: In vitro stability during apical incubation on Caco-2 cell monolayers; assay type: in vitro ADME, human; details: 37 °C, RP-HPLC; for peptide remaining after 4 h in physical mixture with penetratin, % of initially applied: 5 µM peptide + 20 µM penetratin, N = 3, mean ± SD
# Procedure: (§1) At 80% confluency the cells were sub-cultured by detaching them from the culture flasks by trypsin-EDTA treatment. […] [17]. Briefly, The Caco-2 cell monolayers were washed twice apical and basolateral with 37 °C hHBSS and equilibrated to room temperature in the last washing volume. The transepithelial electrical resistance (TEER) was measured using an EVOM equipped with an Endohm-12 cup (World Precision Instruments, Sarasota, FL, USA) to validate the barrier integrity of the monolayer. Following equilibration to 37 °C the filter inserts were transferred to empty 6-well plates in order to block permeation across the monolayer. […] The kinetics of the metabolic degradation was evaluated by analytical RP-HPLC as described under the ultracentrifugation procedure.
# [3] = Size distribution by dynamic light scattering; assay type: physicochemical; details: DLS, mHBSS pH 5, 25 °C, 180 µM insulin or PTH(1-34), alone or mixed with 720 µM penetratin, N = 3, mean ± SD
# Procedure: Size distributions according to the distribution by volume were determined using a Zetasizer Nano ZSP (Malvern Instruments, Worcestershire, UK) equipped with a 633 nm laser at 25 °C with 10–20 runs of 10 s and N = 3.
# [4] = In situ rat intestinal injection: plasma insulin or PTH(1-34); assay type: in vivo; details: intraintestinal
# Procedure: 100 μL test samples were withdrawn from the basolateral compartment at time-points 0, 60, 120 and 180 min and stored at -20 °C. The sample volume was immediately replaced with 37 °C hHBSS. […] Male Sprague Dawley rats (Taconic, Ejby, Denmark) weighing ~250 g were allowed to acclimatize for at least 8 days at 20-22 °C and 45-65% humidity with free access to water and food. The rats were fasted for 18 h prior to surgery. Hypnorm (fentanyl 0.315 mg/mL and fluanisone 10 mg/mL) (Glostrup apotek, Glostrup, Denmark) and Dormicum (midazolam 5 mg/mL) (Nomeco, Copenhagen, Denmark) were mixed 1:1 (v/v) with ultrapure water and used for anesthesia. The initial dose was 2 mL/kg and subsequent doses of 1 mL/kg were given every 20 min within the first hour and thereafter every 40 min to keep the animals anaesthetized. All doses of anesthetics were administered subcutaneously in the neck region. The abdominal wall was cut open and the small intestine localized. A 10 cm PE-50 catheter (Smiths Medical, Keene, NH, USA) was inserted into the middle of the intestine and secured with a 3/0 suture (Braun, Tuttlingen, Germany). Care was taken not to interrupt the mesenteric blood flow. The intestine was hydrated with 1-2 mL isotonic sodium chloride solution before the rat abdominal wall was closed with 9 mm clips using the AutoClip Wound Closure System (Alzet, Cupertino, CA, USA). […] The blood samples were placed on ice prior isolation of the plasma by centrifugation at 2000× g at 4 °C for 10 min (Eppendorf centrifuge 5424, Eppendorf, Hamburg, Germany). Blood glucose was measured at time points of 15, 30, 45, 60, 90, and 120 min after dosing using an On-Call blood glucose meter (Acon, San Diego, CA, USA). After the final blood sampling, the animals were euthanized while still under anesthesia using 90% CO2 in O2 [19]. The abdominal wall of the rats was reopened after the experiment to ensure the catheter was still in place. Likewise, control of potential damage to the intestine was determined macroscopically. The experiments were conducted in strict compliance with the national animal research license 2009/561-1622.
# [5] = system: Male Sprague Dawley rats; assay: In situ rat intestinal injection: blood glucose; assay type: in vivo; details: intraintestinal
# Procedure: Male Sprague Dawley rats (Taconic, Ejby, Denmark) weighing ~250 g were allowed to acclimatize for at least 8 days at 20–22 °C and 45–65% humidity with free access to water and food. The rats were fasted for 18 h prior to surgery. Hypnorm (fentanyl 0.315 mg/mL and fluanisone 10 mg/mL) (Glostrup apotek, Glostrup, Denmark) and Dormicum (midazolam 5 mg/mL) (Nomeco, Copenhagen, Denmark) were mixed 1:1 (v/v) with ultrapure water and used for anesthesia. The initial dose was 2 mL/kg and subsequent doses of 1 mL/kg were given every 20 min within the first hour and thereafter every 40 min to keep the animals anaesthetized. All doses of anesthetics were administered subcutaneously in the neck region. The abdominal wall was cut open and the small intestine localized. A 10 cm PE-50 catheter (Smiths Medical, Keene, NH, USA) was inserted into the middle of the intestine and secured with a 3/0 suture (Braun, Tuttlingen, Germany). Care was taken not to interrupt the mesenteric blood flow. The intestine was hydrated with 1–2 mL isotonic sodium chloride solution before the rat abdominal wall was closed with 9 mm clips using the AutoClip Wound Closure System (Alzet, Cupertino, CA, USA). The animal was left on a 37 °C heating plate (Scandidact, Kvistgaard, Denmark) for 30 min prior dosing of the test samples to allow normalization of the potentially elevated blood glucose level resulting from stress induced by handling and surgery. […] A volume of 200 µL air was injected immediately after dosing to fully empty the catheter into the intestinal lumen. 200 µL blood samples were collected from the tail vein at time points 0, 5, 15, 30, 45, 60, 90, and 120 min into EDTA-coated microcuvette vials (Sarstedt, Nümbrecht, Germany). The blood samples were placed on ice prior isolation of the plasma by centrifugation at 2000× g at 4 °C for 10 min (Eppendorf centrifuge 5424, Eppendorf, Hamburg, Germany). Blood glucose was measured at time points of 15, 30, 45, 60, 90, and 120 min after dosing using an On-Call blood glucose meter (Acon, San Diego, CA, USA). After the final blood sampling, the animals were euthanized while still under anesthesia using 90% CO2 in O2 [19]. The abdominal wall of the rats was reopened after the experiment to ensure the catheter was still in place. Likewise, control of potential damage to the intestine was determined macroscopically. The experiments were conducted in strict compliance with the national animal research license 2009/561-1622.
# [6] = system: Caco-2 cell monolayers; assay: In vitro transepithelial permeation across Caco-2 cell monolayers; assay type: in vitro ADME, human; details: Caco-2, apical to basolateral, 3 h, 37 °C, ELISA/EIA, N = 3, n = 3; for effect on permeation of lowering the sample pH from 6.5 or 7.4 to pH 5, without penetratin (in words): 5 µM peptide alone
# Procedure: At 80% confluency the cells were sub-cultured by detaching them from the culture flasks by trypsin-EDTA treatment. […] Caco-2 cell monolayers were washed twice apical and basolateral with 37 °C hHBSS. The cells were equilibrated to room temperature in the last washing volume before TEER was measured using an EVOM equipped with an Endohm-12 cup (World Precision Instruments, Sarasota, FL, USA) and equilibration to 37 °C. […] The permeation study was initiated by careful transfer of the filter inserts to fresh 12-well plates containing 1 mL 37 °C hHBSS. The experiment was performed on a 37 °C shaking table (50 rpm). 100 µL test samples were withdrawn from the basolateral compartment at time-points 0, 60, 120 and 180 min and stored at −20 °C. The sample volume was immediately replaced with 37 °C hHBSS.
# [7] = In vitro stability during apical incubation on Caco-2 cell monolayers; assay type: in vitro ADME, human; details: human, peptide alone, 5 µM, 37 °C, RP-HPLC, N = 3, mean ± SD, read-out: intact peptide remaining after 4 h, % of initial concentration
# Procedure: as §1
# [8] = Visual inspection of samples at the concentrations applied in vivo; assay type: physicochemical; details: PTH(1-34) mixed with penetratin
# [9] = no reference given; cited from earlier work
# [10] = pH 5, apical incubation on Caco-2 monolayers
# [11] = pH 7.4, apical incubation on Caco-2 monolayers
# [12] = insulin (50 IU/kg) alone or 720 µM penetratin alone, pH 5, N = 6, mean ± SD
# [13] = apical pH 5, 5 µM peptide + 20 µM penetratin
# [14] = apical pH 6.5 and 7.4, 5 µM peptide + 20 µM penetratin
# [15] = pH 6.5, apical incubation on Caco-2 monolayers
"ThT fluorescence above background, peptide alone (in words) [1]",Compound,"peptide remaining after 4 h in physical mixture with penetratin, % of initially applied [2, 10] [%]","peptide remaining after 4 h in physical mixture with penetratin, % of initially applied [2, 11]","blood glucose level, % of initial value [5, 12]","effect on permeation of lowering the sample pH from 6.5 or 7.4 to pH 5, without penetratin (in words) [6]","penetratin-mediated transepithelial permeation / Papp (in words) [6, 13]","penetratin-mediated transepithelial permeation / Papp (in words) [6, 14]",pI [9],further results
no pronounced increase,CC[C@H](C)[C@H](NC(=O)[C@H](CCC(=O)O)NC(=O)[C@H](CO)NC(=O)[C@@H](NC(=O)[C@@H](N)CO)C(C)C)C(=O)N[C@@H](CCC(N)=O)C(=O)N[C@@H](CC(C)C)C(=O)N[C@@H](CCSC)C(=O)N[C@@H](Cc1cnc[nH]1)C(=O)N[C@@H](CC(N)=O)C(=O)N[C@@H](CC(C)C)C(=O)NCC(=O)N[C@@H](CCCCN)C(=O)N[C@@H](Cc1cnc[nH]1)C(=O)N[C@@H](CC(C)C)C(=O)N[C@@H](CC(N)=O)C(=O)N[C@@H](CO)C(=O)N[C@@H](CCSC)C(=O)N[C@@H](CCC(=O)O)C(=O)N[C@@H](CCCN=C(N)N)C(=O)N[C@H](C(=O)N[C@@H](CCC(=O)O)C(=O)N[C@@H](Cc1c[nH]c2ccccc12)C(=O)N[C@@H](CC(C)C)C(=O)N[C@@H](CCCN=C(N)N)C(=O)N[C@@H](CCCCN)C(=O)N[C@@H](CCCCN)C(=O)N[C@@H](CC(C)C)C(=O)N[C@@H](CCC(N)=O)C(=O)N[C@@H](CC(=O)O)C(=O)N[C@H](C(=O)N[C@@H](Cc1cnc[nH]1)C(=O)N[C@@H](CC(N)=O)C(=O)N[C@@H](Cc1ccccc1)C(=O)O)C(C)C)C(C)C [PTH(1-34)],72.4 ± 3.0,69.9 ± 2.7%,,did not increase,increase,no significant increase,8.3,"remaining at 4 h, 5 µM [7, 10]: 66.6 ± 8.5%; remaining at 4 h, 5 µM [7, 15]: 71.7 ± 7.1%; remaining at 4 h, 5 µM [7, 11]: 73.6 ± 9.1%; peptide remaining after 4 h in physical mixture with penetratin, % of initially applied [2, 15]: 67.0 ± 2.6%; pH-dependent trend of penetratin-mediated delivery, Cmax of plasma PTH(1-34) and AUC ([4]; PTH(1-34) 1.2 mg/kg + penetratin 1:4, N = 6): pH 5 > pH 6.5 > pH 7.4; visible precipitation on mixing with penetratin (in words) [8]: not evident"
no pronounced increase,RQIKIWFQNRRMKWKK [penetratin],,,did not affect,,,,12.3,

Compound,"ThT fluorescence above background, peptide alone (in words) [1]","peptide remaining after 4 h in physical mixture with penetratin, % of initially applied [2, 10] [%]","peptide remaining after 4 h in physical mixture with penetratin, % of initially applied [2, 11]","blood glucose level, % of initial value [5, 12]","effect on permeation of lowering the sample pH from 6.5 or 7.4 to pH 5, without penetratin (in words) [6]","penetratin-mediated transepithelial permeation / Papp (in words) [6, 13]","penetratin-mediated transepithelial permeation / Papp (in words) [6, 14]",pI [9],further results
"insulin: Human recombinant insulin (5807.6 g/mol, Zn-free) provided by Sanofi",increase,89.9 ± 11.2,remained stable,86.9 ± 6.0%,did not increase,increase,no significant increase,,"stability during incubation for 4 h (in words) ([2]; 5 µM insulin alone, pH 5, 6.5, or 7.4, apical incubation on Caco-2 monolayers, N = 3): remained stable; volume mean size [3]: 1579 ± 319 nm; plasma insulin concentration and AUC on co-administration with penetratin (in words) ([4]; insulin 50 IU/kg + penetratin 1:4, pH 5, compared to pH 6.5 and 7.4, N = 6): greatest effect; plasma insulin concentration and AUC on co-administration with penetratin (in words) ([4]; insulin 50 IU/kg + penetratin 1:4, pH 6.5, N = 6): slight increase; plasma insulin concentration and AUC on co-administration with penetratin (in words) ([4]; insulin 50 IU/kg + penetratin 1:4, pH 7.4, N = 6): did not differ from administration of insulin alone; blood glucose level, % of initial value ([5]; insulin 50 IU/kg in physical mixture with 720 µM penetratin (1:4), pH 5, 60 min time-point, N = 6, mean ± SD): 38.5 ± 23.8%; blood glucose level, % of initial value ([5]; insulin 50 IU/kg in physical mixture with 720 µM penetratin (1:4), pH 6.5, after 60 min, N = 6, mean ± SD): 71.1 ± 17.8%; blood glucose level, % of initial value ([5]; insulin 50 IU/kg in physical mixture with 720 µM penetratin (1:4), pH 7.4, after 60 min, N = 6, mean ± SD): 83.3 ± 21.2%; blood glucose level, % of initial value ([5]; insulin (50 IU/kg) alone, pH 6.5, N = 6, mean ± SD): 88.9 ± 11.1%; blood glucose level (in words) ([5]; insulin (50 IU/kg) alone, pH 7.4, N = 6): did not affect"
